Measurements: patent publication US20070128217A1 (priority 2003, published 2007)

How the values were obtained:
[1] = test system: antibodies in sera from SARS patients (sera 1a, 1b, 2, 6, 37, 62, London, SARS-yellow, SARS-green); type: binding, human; parameters: Binding of serum 6 to linear peptides of protein X1 of SARS-CoV Urbani / Binding of serum 37 to linear peptides of protein X1 of SARS-CoV Urbani / Binding of serum 6 to looped/cyclic peptide (PEPSCAN-ELISA) / Binding of serum 37 to looped/cyclic peptide (PEPSCAN-ELISA) / Binding of serum 37 to looped/cyclic peptides of protein X1 of SARS-CoV Urbani / Binding of serum 6 to linear peptides of protein X2 / Binding of serum 37 to linear peptides of protein X2 / Binding of serum 37 to looped/cyclic peptides of protein X2 of SARS-CoV Urbani / Binding of serum 6 to linear peptides of protein M of SARS-CoV Urbani / Binding of serum 37 to linear peptides of protein M of SARS-CoV Urbani / Binding of serum 6 to looped/cyclic peptides of protein M of SARS-CoV Urbani / Binding of serum 37 to looped/cyclic peptides of protein M of SARS-CoV Urbani / Binding of serum 6 to linear peptides of protein X3 of SARS-CoV Urbani / Binding of serum 37 to linear peptides of protein X3 of SARS-CoV Urbani / Binding of serum 37 to looped/cyclic peptides of protein X3 of SARS-CoV Urbani / Binding of serum 6 to linear peptides of protein X4 of SARS-CoV Urbani / Binding of serum 37 to linear peptides of protein X4 of SARS-CoV Urbani / Binding of serum 37 to looped/cyclic peptides of protein X4 of SARS-CoV Urbani / Binding of serum 6 to linear peptides of protein X5 of SARS-CoV Urbani / Binding of serum 37 to linear peptides of protein X5 of SARS-CoV Urbani / Binding of serum 37 to looped/cyclic peptides of protein X5 of SARS-CoV Urbani / Binding of serum 6 to linear peptides of protein N of SARS-CoV Urbani / Binding of serum 37 to linear peptides of protein N of SARS-CoV Urbani / Binding of serum 6 to linear peptide (PEPSCAN-ELISA) / Binding of serum 1a to looped/cyclic peptides of protein N of SARS-CoV Urbani / Binding of serum 1b to looped/cyclic peptides of protein N of SARS-CoV Urbani / Binding of serum 2 to looped/cyclic peptides of protein N of SARS-CoV Urbani / Binding of serum 6 to looped/cyclic peptides of protein N of SARS-CoV Urbani / Binding of serum 37 to looped/cyclic peptides of protein N of SARS-CoV Urbani / Binding of serum 62 to looped/cyclic peptides of protein N of SARS-CoV Urbani / Binding of serum London to looped/cyclic peptides of protein N of SARS-CoV Urbani / Binding of serum SARS-green to looped/cyclic peptides of protein N of SARS-CoV Urbani: unit not given here
[2] = test system: control sera (pooled serum of ten healthy LUMC hospital workers; commercial negative donor pooled serum from the Dutch bloodbank); type: binding, human; parameters: Binding of Control serum LUMC to linear peptides / Binding of Control serum Blood-bank to linear peptides / Binding of Control serum LUMC to looped peptides / Binding of Control Serum Blood-Bank to Looped peptides / Binding of Control serum LUMC to linear peptides of the protein M of SARS-CoV Urbani / Binding of Control serum Blood-bank to linear peptides of the protein M of SARS-CoV Urbani / Binding of Control serum LUMC to looped peptides of the protein M of SARS-CoV Urbani / Binding of Control Serum Blood-Bank to Looped peptides of the protein M of SARS-CoV Urbani: unit not given here
[3] = test system: rabbit serum obtained by immunizing a rabbit with the SARS-CoV strain Frankfurt 1; type: binding; parameters: Binding of a rabbit serum to linear peptides / Binding of a rabbit serum to looped peptides / Rabbit serum linear peptides / Rabbit serum looped peptides / Binding of a rabbit serum to linear peptides of protein N of SARS-CoV Urbani (Rabbit serum linear peptides) / Binding of a rabbit serum to looped/cyclic peptides of protein N of SARS-CoV Urbani (Rabbit serum looped peptides): unit not given here

With MFHLVDFQVTIAEIL the “Binding of serum 1a to linear peptides of protein X3 of SARS-CoV Urbani” value [1] was 0.8, the “Binding of serum 1a to looped/cyclic peptides of protein X3 of SARS-CoV Urbani” value [1] was 0.8 and the “Binding of serum 1b to linear peptides of protein X3 of SARS-CoV Urbani” value [1] was 0.7. For the same sequence, the “Binding of serum 1b to looped/cyclic peptides of protein X3 of SARS-CoV Urbani” value [1] was 0.6, the “Binding of serum 2 to linear peptides of protein X3 of SARS-CoV Urbani” value [1] was 0.7 and the “Binding of serum 2 to looped/cyclic peptides of protein X3 of SARS-CoV Urbani” value [1] was 0.8. For the same sequence, the “Binding of serum 6 to linear peptides of protein X3 of SARS-CoV Urbani” value [1] was 0.5, the “Binding of serum 6 to looped/cyclic peptides of protein X3 of SARS-CoV Urbani” value [1] was 0.6 and the “Binding of serum 37 to linear peptides of protein X3 of SARS-CoV Urbani” value [1] was 0.7. The “Binding of serum 37 to looped/cyclic peptides of protein X3 of SARS-CoV Urbani” value [1] was 1.0, the “Binding of serum 62 to linear peptides of protein X3 of SARS-CoV Urbani” value [1] was 0.8 and the “Binding of serum 62 to looped/cyclic peptides of protein X3 of SARS-CoV Urbani” value [1] was 0.8. The “Binding of serum London to linear peptides of protein X3 of SARS-CoV Urbani” value [1] was 0.7, the “Binding of serum London to looped/cyclic peptides of protein X3 of SARS-CoV Urbani” value [1] was 0.3 and the “Binding of serum SARS-green to linear peptides of protein X3 of SARS-CoV Urbani” value [1] was 0.3. For the same sequence, the “Binding of serum SARS-green to looped/cyclic peptides of protein X3 of SARS-CoV Urbani” value [1] was 0.6, the “Binding of serum SARS-yellow to linear peptides of protein X3 of SARS-CoV Urbani” value [1] was 0.6 and the “Binding of serum SARS-yellow to looped/cyclic peptides of protein X3 of SARS-CoV Urbani” value [1] was 0.8. The “Binding of Control Serum Blood-Bank to Looped peptides of the protein X3 of SARS-CoV Urbani” value [2] was 0.8, the “Binding of Control serum Blood-bank to linear peptides of the protein X3 of SARS-CoV Urbani” value [2] was 0.9 and the “Binding of Control serum LUMC to linear peptides of the protein X3 of SARS-CoV Urbani” value [2] was 0.9. For the same sequence, the “Binding of Control serum LUMC to looped peptides of the protein X3 of SARS-CoV Urbani” value [2] was 1.0, the “Rabbit serum linear peptides” value [3] was 0.3 and the “Rabbit serum looped peptides” value [3] was 0.4.

For MKIILFLTLIVFTSC, the “Binding of serum 1a to linear peptides of protein X4 of SARS-CoV Urbani” value [1] was 0.6, the “Binding of serum 1a to looped/cyclic peptides of protein X4 of SARS-CoV Urbani” value [1] was 0.6 and the “Binding of serum 1b to linear peptides of protein X4 of SARS-CoV Urbani” value [1] was 0.5. For the same sequence, the “Binding of serum 1b to looped/cyclic peptides of protein X4 of SARS-CoV Urbani” value [1] was 0.0, the “Binding of serum 2 to linear peptides of protein X4 of SARS-CoV Urbani” value [1] was 0.4 and the “Binding of serum 2 to looped/cyclic peptides of protein X4 of SARS-CoV Urbani” value [1] was 0.5. For the same sequence, the “Binding of serum 6 to linear peptides of protein X4 of SARS-CoV Urbani” value [1] was 0.4, the “Binding of serum 6 to looped/cyclic peptides of protein X4 of SARS-CoV Urbani” value [1] was 0.5 and the “Binding of serum 37 to linear peptides of protein X4 of SARS-CoV Urbani” value [1] was 0.7. The “Binding of serum 37 to looped/cyclic peptides of protein X4 of SARS-CoV Urbani” value [1] was 0.6, the “Binding of serum 62 to linear peptides of protein X4 of SARS-CoV Urbani” value [1] was 0.7 and the “Binding of serum 62 to looped/cyclic peptides of protein X4 of SARS-CoV Urbani” value [1] was 0.5. For the same sequence, the “Binding of serum London to linear peptides of protein X4 of SARS-CoV Urbani” value [1] was 0.7, the “Binding of serum London to looped/cyclic peptides of protein X4 of SARS-CoV Urbani” value [1] was 0.2 and the “Binding of serum SARS-green to linear peptides of protein X4 of SARS-CoV Urbani” value [1] was 0.4. For the same sequence, the “Binding of serum SARS-green to looped/cyclic peptides of protein X4 of SARS-CoV Urbani” value [1] was 0.3, the “Binding of serum SARS-yellow to linear peptides of protein X4 of SARS-CoV Urbani” value [1] was 0.5 and the “Binding of serum SARS-yellow to looped/cyclic peptides of protein X4 of SARS-CoV Urbani” value [1] was 0.6. The “Binding of Control Serum Blood-Bank to Looped peptides” value [2] was 0.6, the “Binding of Control serum Blood-bank to linear peptides” value [2] was 0.6 and the “Binding of Control serum LUMC to linear peptides” value [2] was 0.5. For the same sequence, the “Binding of Control serum LUMC to looped peptides” value [2] was 0.7, the “Rabbit serum linear peptides” value [3] was 0.7 and the “Rabbit serum looped peptides” value [3] was 0.4.

For MLHSSSLTSLLKTHR, the “Binding of serum 1a to linear peptides of protein X2” value [1] was 0.6, the “Binding of serum 1a to looped/cyclic peptides of protein X2 of SARS-CoV Urbani” value [1] was 0.5 and the “Binding of serum 1b to linear peptides of protein X2” value [1] was 0.4. The “Binding of serum 1b to looped/cyclic peptides of protein X2 of SARS-CoV Urbani” value [1] was 0.5, the “Binding of serum 2 to linear peptides of protein X2” value [1] was 0.4 and the “Binding of serum 2 to looped/cyclic peptides of protein X2 of SARS-CoV Urbani” value [1] was 0.5. The “Binding of serum 6 to linear peptides of protein X2” value [1] was 0.6, the “Binding of serum 6 to looped/cyclic peptides of protein X2 of SARS-CoV Urbani” value [1] was 0.2 and the “Binding of serum 37 to linear peptides of protein X2” value [1] was 0.5. For the same sequence, the “Binding of serum 37 to looped/cyclic peptides of protein X2 of SARS-CoV Urbani” value [1] was 0.3, the “Binding of serum 62 to linear peptides of protein X2” value [1] was 0.5 and the “Binding of serum 62 to looped/cyclic peptides of protein X2 of SARS-CoV Urbani” value [1] was 0.5. The “Binding of serum London to linear peptides of protein X2” value [1] was 0.6, the “Binding of serum London to looped/cyclic peptides of protein X2 of SARS-CoV Urbani” value [1] was 0.2 and the “Binding of serum SARS-green to linear peptides of protein X2” value [1] was 0.5. The “Binding of serum SARS-green to looped/cyclic peptides of protein X2 of SARS-CoV Urbani” value [1] was 0.4, the “Binding of serum SARS-yellow to linear peptides of protein X2” value [1] was 0.5 and the “Binding of serum SARS-yellow to looped/cyclic peptides of protein X2 of SARS-CoV Urbani” value [1] was 0.5. The “Binding of Control Serum Blood-Bank to Looped peptides” value [2] was 0.6, the “Binding of Control serum Blood-bank to linear peptides” value [2] was 0.5 and the “Binding of Control serum LUMC to linear peptides” value [2] was 0.4. The “Binding of Control serum LUMC to looped peptides” value [2] was 0.5, the “Binding of a rabbit serum to linear peptides” value [3] was 0.2 and the “Binding of a rabbit serum to looped peptides” value [3] was 0.5.
